Results from the supplement of paper PMC10307832.

Assays:
Test in all cases: relative viability (nuclei count vs DMSO), 5 days (fraction); higher = more cells survive
[1] = compound: C1CN(CCC1C(C2=CC3=C(C=C2)OCO3)(C4=CC5=C(C=C4)OCO5)O)C(=O)OC6=CC=C(C=C6)[N+](=O)[O-] [JZL-184] + CC(=O)Nc1cccc(-n2c(=O)n(C3CC3)c(=O)c3c(Nc4ccc(I)cc4F)n(C)c(=O)c(C)c32)c1 [Trametinib] (partner 0.02 µM)
Method in brief: (§1)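 One day after seeding in 1536-well plates, lung cancer cell lines were dosed by pin tool. Dosing was either single-drug or a fixed anchor-drug dose plus five library-drug doses (not always all listed) in √10 steps. After 5 days, nuclei were stained in one fix-and-stain step and counted on 4× images, and relative viability is the nuclei count of treated wells over that of vehicle wells, given as the median of duplicate plates.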

[2] = compound: C1CN(CCC1C(C2=CC3=C(C=C2)OCO3)(C4=CC5=C(C=C4)OCO5)O)C(=O)OC6=CC=C(C=C6)[N+](=O)[O-] [JZL-184] + CCNC(=O)c1noc(-c2cc(C(C)C)c(O)cc2O)c1-c1ccc(CN2CCOCC2)cc1 [Luminespib] (partner 0.01 µM)
Method in brief: as §1

[3] = compound: C1CN(CCC1C(C2=CC3=C(C=C2)OCO3)(C4=CC5=C(C=C4)OCO5)O)C(=O)OC6=CC=C(C=C6)[N+](=O)[O-] [JZL-184] + COc1cccc2cc(-c3nc([C@H]4CC[C@H](C(=O)O)CC4)n4ncnc(N)c34)[nH]c12 [OSI-027] (partner 0.5 µM)
Method in brief: as §1

[4] = compound: C1CN(CCC1C(C2=CC3=C(C=C2)OCO3)(C4=CC5=C(C=C4)OCO5)O)C(=O)OC6=CC=C(C=C6)[N+](=O)[O-] [JZL-184] + NC(=O)Nc1cc(-c2cccc(F)c2)sc1C(=O)N[C@H]1CCCNC1 [AZD7762] (partner 0.2 µM)
Method in brief: as §1

[5] = compound: C1CN(CCC1C(C2=CC3=C(C=C2)OCO3)(C4=CC5=C(C=C4)OCO5)O)C(=O)OC6=CC=C(C=C6)[N+](=O)[O-] [JZL-184] + O=C(CCCCCCC(=O)Nc1ccccc1)NO [Vorinostat] (partner 1 µM)
Method in brief: as §1

| Cell Line | relative viability ([1]; first compound 0.04 µM) | relative viability ([1]; first compound 0.4 µM) | relative viability ([1]; first compound 1.265 µM) | relative viability ([1]; first compound 4 µM) | relative viability ([2]; first compound 0.04 µM) | relative viability ([2]; first compound 0.4 µM) | relative viability ([2]; first compound 1.265 µM) | relative viability ([2]; first compound 4 µM) | relative viability ([3]; first compound 0.04 µM) | relative viability ([3]; first compound 0.4 µM) | relative viability ([3]; first compound 1.265 µM) | relative viability ([3]; first compound 4 µM) | relative viability ([4]; first compound 0.04 µM) | relative viability ([4]; first compound 0.4 µM) | relative viability ([4]; first compound 1.265 µM) | relative viability ([4]; first compound 4 µM) | relative viability ([5]; first compound 0.04 µM) | relative viability ([5]; first compound 0.4 µM) | relative viability ([5]; first compound 1.265 µM) | relative viability ([5]; first compound 4 µM) |
| --- | --- | --- | --- | --- | --- | --- | --- | --- | --- | --- | --- | --- | --- | --- | --- | --- | --- | --- | --- | --- |
| NCI-H1734 | 0.721 | 0.611 | 0.72 | 0.606 | 0.207 | 0.206 | 0.185 | 0.222 | 0.621 | 0.615 | 0.718 | 0.594 | 0.571 | 0.518 | 0.719 | 0.625 | 0.927 | 0.762 | 0.844 | 0.834 |
| NCI-H1755 | 0.748 | 0.747 | 0.802 | 0.77 | 0.598 | 0.418 | 0.26 | 0.405 | 0.672 | 0.699 | 0.709 | 0.745 | 0.397 | 0.379 | 0.456 | 0.433 | 0.704 | 0.634 | 0.798 | 0.638 |
| NCI-H1793 | 0.433 | 0.481 | 0.455 | 0.438 | 0.162 | 0.165 | 0.153 | 0.156 | 0.26 | 0.263 | 0.319 | 0.259 | 0.359 | 0.465 | 0.742 | 0.401 | 0.663 | 0.571 | 0.963 | 0.64 |
| NCI-H1915 | 0.301 | 0.293 | 0.328 | 0.297 | 0.913 | 0.682 | 0.8 | 0.718 | 0.659 | 0.604 | 0.698 | 0.585 | 0.76 | 0.58 | 0.726 | 0.697 | 0.481 | 0.493 | 0.48 | 0.537 |
| NCI-H1944 | 0.438 | 0.385 | 0.452 | 0.417 | 0.615 | 0.682 | 0.766 | 0.754 | 0.421 | 0.397 | 0.448 | 0.412 | 0.556 | 0.469 | 0.531 | 0.54 | 0.528 | 0.476 | 0.565 | 0.475 |
| NCI-H1975 | 0.314 | 0.33 | 0.349 | 0.33 | 0.275 | 0.292 | 0.265 | 0.168 | 0.842 | 0.759 | 0.764 | 0.654 | 0.723 | 0.664 | 0.804 | 0.583 | 0.731 | 0.694 | 0.718 | 0.635 |
| NCI-H1993 | 0.496 | 0.51 | 0.517 | 0.559 | 0.846 | 0.745 | 0.885 | 0.968 | 0.523 | 0.498 | 0.497 | 0.532 | 0.704 | 0.725 | 0.885 | 0.803 | 0.907 | 0.736 | 1.21 | 0.764 |
